Entries after “also recorded” stand apart in the source; their conditions may differ.
What was measured:
A549 cells [1] = assay: Flow cytometry detection of the efficiency of nucleic acid delivery by lipid; format: cell-based, human; settings: boiling method, 6 hours co-incubation
Method: Experimental materials: A549 cells (purchased from the Cell Center of the Chinese Academy of Medical Sciences), FAM-sRNA (purchased from Ribobio Biotechnology Co., Ltd.), lipid No. 41, Accuri® C6 instrument (purchased from BD, USA).
Experimental methods: PGY-sRNA-6-FAM was dissolved in 100 μl water, mixed with 4 μl lipid, and prepared by boiling method. Then the mixture was dropped into A549 cells, and after 6 hours of co-incubation, the samples were collected for detection as follows: firstly wash three times with PBS, then digest with trypsin for 3 minutes and remove trypsin, wash with PBS again and then blow down the cells. The detection was performed using Accuri® C6 instrument.
Experimental Method: PGY-sRNA-6-FAM was dissolved in 100 μl water, and mixed with 4 μl lipid, and prepared into lipid-sRNA mixture by boiling method. Then, the mixture was dropped into A549 cells, and after 6 hours of co-incubation, the samples were collected and washed three times with PBS, then digested with trypsin into single cells, washed with re-suspended with PBS and then blown down for Accuri® C6 instrument detection.
Experimental Method: FAM-sRNA was dissolved in 100 μl water, and mixed with 4 μl lipid, prepared by boiling method. Then, the lipid-sRNA mixture was dropped into A549 cells, and after 6 hours of co-incubation, the samples were collected and washed three times with PBS, then digested into single cells with trypsin, re-suspended with PBS and then blown down for Accuri® C6 instrument detection.

A549 cells [2] = assay: Confocal fluorescence microscopy of nucleic acid delivered by lipid; format: cell-based, human; settings: boiling method, 4 μl lipid, 6 hours co-incubation
Method: Experimental materials: A549 cells (purchased from the Cell Center of the Chinese Academy of Medical Sciences), PGY-sRNA-6-Cy3 (purchased from Ribobio Biotechnology Co., Ltd.), lipid No. 41, Zeiss LSM780 (purchased from Zeiss, Germany), Alexa Fluor® 488 phalloidin (purchased from Invitrogen, USA), DAPI (purchased from Invitrogen, USA), paraformaldehyde (purchased from sigma, USA).
(§1) Experimental methods: PGY-sRNA-6-FAM was dissolved in 100 μl water, mixed with 4 μl lipid, and prepared by the boiling method. Then the mixture was dropped into A549 cells, and after 6 hours of co-incubation, the samples were washed three times with PBS, fixed with 4% paraformaldehyde, washed three times with PBS, stained with Alexa Fluor® 488 phalloidin for 30 min, washed 3 times with PBS, and stained with DAPI for 5 min, washed with PBS, and then sealed.
as §1, with “method:” for “methods:”, “water, and” for “water,”, “by” for “by the”, “Then,” for “Then”, “PBS washed,” for “washed with PBS,”

[3] = In vivo delivery of single-stranded sRNA by single lipid, gavage (Example 11); design: species or system C57 mice; settings: 10 μL lipid, sRNA 1 nmol each, 12 hours; for delivery of sRNA single-stranded nucleic acid into mouse blood: FIGS. 108, 112-115, oral (gavage), heating method, vs POPC and Lipofectamine RNAiMAX
Method: 1. Experimental animals: C57 mice, male, approximately 6 weeks old.
2. Manufacture of lipid mixture: the prepration was conducted on the basis of a dose of 10 μ1 lipid-1 nmol sRNA per mouse as follows: dissolved 1 nmol of each sRNA in 500 μl DEPC water, added 10 μl of the corresponding lipid, pipette to mix thoroughly, and then naturally cooled down after water bath for 15 min at 90° C., and administered via gavage.
1) Tissue sampling and extraction of RNA: 6 hours after gavage in mice, took 500 μl of blood from the eyeball, added 1.5 ml Trizol Reagent LS to thoroughly mix and lyse, added 3 ml Trizol Reagent (purchased from Invitrogen) to the tissue samples and homogenized until complete lysis. Tissues sampled: live/stomach/small intestine.
2) Reverse transcription of sRNA to cDNA: Reverse Transcription Kit (High-Capacity cDNA Reverse Transcription Kits, Applied Biosystems, cat. no. 4368813), was used to reverse transcribe the total RNA to cDNA, and the reverse system was as follows: template RNA (150 ng/μL) 10 μL, 10× RT buffer, 2.0 μL, 25× dNTP Mix (100 mM) 0.8 μL, random primers 2.0 μL, the Multi Scribe™ reverse Transcriptase 1.0 μL, RNase inhibitor 1.0 μL, nuclease-free H2O 3.2 μL. After a brief centrifugation, the reaction was loaded in a PCR reactor. The reaction conditions were as follows: (1) 25° C., 10 min; (2) 37° C., 120 min; (3) 85° C., 5 min; (4) 4° C., termination of the reaction. After the reaction, 20 μL RNase-free ddH2O was added to make up the final volume to 40 μL.
LightCycler 480 fluorescence quantitative PCR instrumentwas used, and the PCR reaction conditions were: 95° C. , 5 min for pre-denaturation, followed by the PCR amplification cycle: (1) 95° C., 10 s; (2) 55° C., 10 s; (3) 72° C., 20 s; a total of 40 cycles; 40° C. for 10 s in the end to cool down. The forward primer and reverse primer of the amplification reaction were designed and synthesized by Beijing Qing Ke New Industrial Biotechnology Co., Ltd. (U6 F primer: GCGCGTCGTGAAGCGTTC (SEQ ID NO: 23), U6 R primer: GTGCAGGGTCCGAGGT (SEQ ID NO: 24)).
3) The relative expression amount was calculated by the 2-ΔCt method.
5) Treatment group of single lipid and nucleic acid mixture: a mixture of 10 μL of single lipid (No. 41) with single-stranded sRNA mixure solution (PGY-sRNA-23, PGY-sRNA-26 and PGY-sRNA-32, 1 nmol each) was treated by heating method and then given to mice via intragastric administration.
2. 12 hours after intragastric administration, the blood was taken from the eyeball, and various tissues (liver/stomach/small intestine) was sampled. TRIzol was used for full lysis and the RNA was extracted to detect the amount of entry.

Structure (SMILES) | efficiency in delivering PGY-sRNA-6 single-stranded RNA (flow cytometry) (A549 cells [1]; 4 μl lipid) | efficiency of PGY-sRNA-6 single-stranded RNA delivery relative to positive control RNAiMAX (flow cytometry) (A549 cells [1]) | entry of PGY-sRNA-6-Cy3 observed under confocal microscopy (A549 cells [2]) | delivery of sRNA single-stranded nucleic acid into mouse blood [3] | efficiency in delivering PGY-sRNA-6 double-stranded RNA (flow cytometry) (A549 cells [1]; 4 μl lipid) | delivery of sRNA single-stranded nucleic acid into mouse stomach ([3]; FIG. 109, gavage) | delivery of sRNA single-stranded nucleic acid into mouse small intestine ([3]; FIG. 110, gavage) | delivery of sRNA single-stranded nucleic acid into mouse liver ([3]; FIG. 111, gavage)
CCCCCC/C=C\CCCCCCCC(=O)O[C@H](COC(=O)CCCCCCCCCCCCCCC)COP(=O)(O)OCCN [No. 38, (2-aminoethoxy) [(2R)-2-[(9Z)-hexadec-9-enoyloxy]-3-(hexadecanoyloxy)propoxy] phosphinic acid] | 72.5% | close to that of the positive control RNAiMAX | could effectively deliver double-stranded nucleic acid into A549 cells | could effectively deliver sRNA single-stranded nucleic acid into mouse blood via oral administration; also recorded: the delivery effect was better than POPC and Lipofectamine RNAiMAX |  |  |  | 
CCCCCCCC/C=C\CCCCCCCCCCCC(=O)O[C@H](COC(=O)CCCCCCCCCCCCCCC)COP(=O)(O)OCCN [No. 40, (2-aminoethoxy) [(2R)-2-[(13Z)-docos-13-enoyloxy]-3-(hexadecanoyloxy)propoxy] phosphinic acid] |  |  | could effectively deliver single-stranded RNA into A549 cells | could effectively deliver sRNA single-stranded nucleic acid into mouse blood via oral administration; also recorded: the delivery effect was better than POPC and Lipofectamine RNAiMAX |  |  |  | 
CCCCCCCCCCCCCCCCCCC[C@@H](O)[C@@H](N)CO [No. 41, Sphinganine (d22:0)] | 94.1% |  | could effectively deliver double-stranded nucleic acid into A549 cells | could effectively deliver sRNA single-stranded nucleic acid into the mouse blood via oral administration; also recorded: the delivery effect was better than POPC and Lipofectamine RNAiMAX | 96.7% | could effectively deliver sRNA single-stranded nucleic acid into the mouse stomach via oral administration to protect sRNA from degradation | could effectively deliver sRNA single-stranded nucleic acid into the mouse small intestine via oral administration to protect sRNA from degradation | could effectively deliver sRNA single-stranded nucleic acid into the mouse liver via oral administration to protect sRNA from degradation
CCCCCCCC/C=C\CCCCCCCCCCCCCC(=O)O[C@H](COC(=O)CCCCCCCCCCCCCC)COP(=O)(O)OCCN [No. 64, 1-pentadecanoyl-2-nervonoyl-sn-glycero-3-phospho-ethanolamine] |  | ½ | could effectively deliver single-stranded RNA into A549 cells | could effectively deliver sRNA single-stranded nucleic acid into mouse blood via oral administration; also recorded: the delivery effect was better than POPC and Lipofectamine RNAiMAX |  |  |  | 

From patent US20210100905A1, “APPLICATION OF COMPOUND OR TRADITIONAL CHINESE MEDICINE EXTRACT IN PREPARATION OF NUCLEIC ACID DELIVERY AGENT, AND RELATED PRODUCTS” (INSTITUTE OF BASIC MEDICAL SCIENCES CHINESE ACADEMY OF …, priority 2018, published 2021)
